According to patent US20260364184A1, “COMPOUND BASED ON OXOISOINDOLINYL-SUBSTITUTED TETRAHYDROPYRIMIDINE-DIONE AND USE THEREOF” (GLUETACS THERAPEUTICS (SHANGHAI) CO., LTD., priority 2023, published 2026):

How the values were obtained:
[1] = test system: Human prostate cancer cell line (NCI-H358); test: Inhibition of NCI-H358 cell proliferation (CellTiter luminescent viability); settings: Table IH1, BCL-2 inhibitor-based, 96 hours; for inhibition at 0.01 µM: NCI-H358, 10 nM, read-out: Inhibition Rate at 10 nM (%); for inhibition at 0.5 µM: NCI-H358, 500 nM, read-out: Inhibition Rate at 500 nM (%)
Experimental: The tumor cells used herein were cultured in a cell culture medium listed in table 3 at 37 °C in an incubator with 5% CO2. Prior to experimentation, all cell lines used were correctly identified by STR profiling, and tested negative for mycoplasma contamination using a mycoplasma detection kit through routine screenings.
The IC50 values of the compounds of the present disclosure (including the compounds in Table 1, Table 2, and Examples 1-468) were determined using the CellTiter-Meiluncell Luminescent Cell Viability Assay Kit from Dalian Meilun Biotech Co., Ltd. The detailed procedure is as follows: Tumor cells were seeded in 96-well cell culture plates at the densities specified in Table 4. On the following day, the test compounds of the present disclosure were subjected to serial dilution. The dilution can be performed according to one of the following two methods: • (1) The first dilution method: The test compounds of the present disclosure (including the compounds in Table 1, Table 2, and Examples 1-468) were subjected to 5-fold serial dilutions starting from a highest concentration of 2000 μM, resulting in a total of 9 concentrations from high to low (2000, 400, 80, 16, 3.2, 0.64, 0.128, 0.0256, 0.00512 μM). Subsequently, 0.5 μL of the test compound dilution was transferred into the 96-well plate containing the cells, with each well containing 100 μL of cell culture medium. […] Into the 96-well plate, the diluted test compounds and corresponding detection reagents were added, resulting in final test compound concentrations of 500 nM and 10 nM, respectively. The experimental procedure is described below using the diluted 2 μM test compound as an example.
0.5 μL of the aforementioned diluted compound of the present disclosure (including the compounds in Table 1, Table 2, and Examples 1-468) was added to the seeded cells in 100 μL of medium, yielding a final test compound concentration of 10 nM. After the cells were treated with the compounds of the present disclosure for a specified period, the cell viability assay reagent was added to the culture medium according to the kit's instructions to determine cell viability. […] All controls were treated using the same procedure as the compounds of the present disclosure. The growth inhibition curves for the compounds of the present disclosure were plotted using Prism GraphPad software, and the IC50 values were calculated therefrom.

[2] = test system: Human Acute T Lymphoblastic Leukemia Cells (Molt-4); test: Inhibition of Molt-4 cell proliferation (CellTiter luminescent viability); type: cell-based; settings: Homo sapiens, MOLT-4, 96 h, Table IH3, BCL-2 inhibitor-based, 96 hours; for inhibition at 0.01 µM: Molt-4, 10 nM, read-out: Inhibition Rate at 10 nM (%); for inhibition at 0.5 µM: Molt-4, 500 nM, read-out: Inhibition Rate at 500 nM (%)
[3] = test system: Human acute lymphocytic leukemia T lymphocytes cell line (CCRF-CEM); test: Inhibition of CCRF-CEM cell proliferation (CellTiter luminescent viability); type: cell-based; settings: Homo sapiens, 96 h, Table IH2, BCL-2 inhibitor-based; for inhibition at 0.01 µM: 10 nM, read-out: Inhibition Rate at 10 nM (%); for inhibition at 0.5 µM: 500 nM, read-out: Inhibition Rate at 500 nM (%)
BCL-2 = target: T1, BCL-2 (Homo sapiens, UniProt P10415); test: Western blot degradation of BCL-2; type: cell-based; settings: Molt-4 Cell; 24 hours
T1 construct: expression of target proteins in cells; endogenous in cells
Experimental: Conventional Western blot assay was performed to evaluate the effects of the compounds of the present disclosure on the expression of target proteins in cells.
(1) Cell Seeding and Protein Harvesting: The selected cells were processed according to the cell seeding procedure and protein harvesting procedure in Table II-2.
(2) To the collected supernatant, 5×SDS sample loading buffer was added, followed by denaturation at 95 °C for 5 minutes. The denatured samples were then separated by SDS-PAGE electrophoresis on a polyacrylamide gel. Proteins were transferred to a nitrocellulose membrane (0.45 μm NC membrane), blocked with blocking buffer at room temperature for 1 hour, and subjected to antibody incubation and development procedures according to the antibody manufacturer's instructions (Cell Signaling Technology).
Half-Maximal Degradation Concentration value (the drug concentration required for degrading proteins by 50%, abbreviated as DC50) reads method: comparing the grayscale values of Western blot bands from drug-treated samples with those from blank DMSO-treated controls, and identifying the drug concentration range at which the grayscale value is half that of the DMSO-treated control bands.
DC50 values can be calculated using ImageJ software to measure grayscale values of Western blot bands from drug-treated samples. The concentration-response curve is fitted to estimate the drug concentration corresponding to half the grayscale value.
Target protein remaining (%) refers to the percentage of target protein remaining in cells after treatment with protein degrader compounds.
Calculation method for target protein remaining (%): Use ImageJ software to measure grayscale values of Western blot bands from drug (protein degrader)-treated samples. The grayscale value of drug-treated bands is divided by that of internal control protein bands, and the resulting quotient is normalized to obtain the relative percentage of remaining target protein after protein degrader treatment.
Target protein degradation rate (%)=1−target protein remaining (%).

T1 sequence (P10415 whole entry): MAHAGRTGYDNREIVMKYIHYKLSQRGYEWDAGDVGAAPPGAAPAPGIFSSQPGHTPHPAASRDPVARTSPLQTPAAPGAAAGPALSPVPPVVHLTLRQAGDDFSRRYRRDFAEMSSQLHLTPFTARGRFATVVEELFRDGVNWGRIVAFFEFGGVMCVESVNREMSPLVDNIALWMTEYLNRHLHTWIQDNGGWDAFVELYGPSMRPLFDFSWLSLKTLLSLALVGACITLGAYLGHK

Structure (SMILES)	inhibition at 0.01 µM [1]	inhibition at 0.5 µM [1]	inhibition at 0.01 µM [2]	inhibition at 0.5 µM [2]	inhibition at 0.01 µM [3]	inhibition at 0.5 µM [3]	Degradation of substrate protein BCL-2 (substrate protein remaining %) (BCL-2)
CC1(C)CCC(c2ccc(Cl)cc2)=C(CN2CCN(c3ccc(C(=O)NS(=O)(=O)c4ccc(N[C@H](CCN5CC6CCC5CN6Cc5ccc6c(c5)CN(N5CCC(=O)NC5=O)C6=O)CSc5ccccc5)c(S(=O)(=O)C(F)(F)F)c4)cc3)CC2)C1 (stereo partly drawn) [GT-07811, 4-(4-((4′-chloro-4,4-dimethyl-3,4,5,6-tetrahydro-[1,1′-biphenyl]-2-yl)methyl)piperazin-1-yl)-N-((4-(((2R)-4-(5-((2-(2,4-dioxotetrahydropyrimidin-1(2H)-yl)-1-oxoisoindolin-5-yl)methyl)-2,5-diazabicyclo[2.2.2]octan-2-yl)-1-(phenylthio)butan-2-yl)amino)-3-((trifluoromethyl)sulfonyl)phenyl)sulfonyl)benzamide]	15 to 20%	40 to 50%	40 to 50%	80 to 100%	5 to 10%	80 to 100%	A (0%≤substrate protein remaining %≤80%)
CC1(C)CCC(c2ccc(Cl)cc2)=C(CN2CCN(c3ccc(C(=O)NS(=O)(=O)c4ccc(N[C@H](CCN5C[C@H]6C[C@@H]5CN6Cc5ccc6c(c5)CN(N5CCC(=O)NC5=O)C6=O)CSc5ccccc5)c(S(=O)(=O)C(F)(F)F)c4)cc3)CC2)C1 [GT-07812, 4-(4-((4′-chloro-4,4-dimethyl-3,4,5,6-tetrahydro-[1,1′-biphenyl]-2-yl)methyl)piperazin-1-yl)-N-((4-(((R)-4-((1R,4R)-5-((2-(2,4-dioxotetrahydropyrimidin-1(2H)-yl)-1-oxoisoindolin-5-yl)methyl)-2,5-diazabicyclo[2.2.1]heptan-2-yl)-1-(phenylthio)butan-2-yl)amino)-3-((trifluoromethyl)sulfonyl)phenyl)sulfonyl)benzamide]	30 to 40%	50 to 60%	50 to 60%	80 to 100%	20 to 30%	80 to 100%	A (0%≤substrate protein remaining %≤80%)
CC1(C)CCC(c2ccc(Cl)cc2)=C(CN2CCN(c3ccc(C(=O)NS(=O)(=O)c4ccc(N[C@H](CCN5C6CCC5CN(Cc5ccc7c(c5)CN(N5CCC(=O)NC5=O)C7=O)C6)CSc5ccccc5)c(S(=O)(=O)C(F)(F)F)c4)cc3)CC2)C1 [GT-07814, 4-(4-((4′-chloro-4,4-dimethyl-3,4,5,6-tetrahydro-[1,1′-biphenyl]-2-yl)methyl)piperazin-1-yl)-N-((4-(((2R)-4-(3-((2-(2,4-dioxotetrahydropyrimidin-1(2H)-yl)-1-oxoisoindolin-5-yl)methyl)-3,8-diazabicyclo[3.2.1]octan-8-yl)-1-(phenylthio)butan-2-yl)amino)-3-((trifluoromethyl)sulfonyl)phenyl)sulfonyl)benzamide]	15 to 20%	40 to 50%	80 to 100%	80 to 100%	50 to 60%	80 to 100%	A (0%≤substrate protein remaining %≤80%)
CC1(C)CCC(c2ccc(Cl)cc2)=C(CN2CCN(c3ccc(C(=O)NS(=O)(=O)c4ccc(N[C@H](CCN5CC6CCC5CN6Cc5ccc6c(c5)C(=O)N(N5CCC(=O)NC5=O)C6=O)CSc5ccccc5)c(S(=O)(=O)C(F)(F)F)c4)cc3)CC2)C1 (stereo partly drawn) [GT-07815, 4-(4-((4′-chloro-4,4-dimethyl-3,4,5,6-tetrahydro-[1,1′-biphenyl]-2-yl)methyl)piperazin-1-yl)-N-((4-(((2R)-4-(5-((2-(2,4-dioxotetrahydropyrimidin-1(2H)-yl)-1,3-dioxoisoindolin-5-yl)methyl)-2,5-diazabicyclo[2.2.2]octan-2-yl)-1-(phenylthio)butan-2-yl)amino)-3-((trifluoromethyl)sulfonyl)phenyl)sulfonyl)benzamide]	15 to 20%	30 to 40%	5 to 10%	80 to 100%	-5 to 0%	50 to 60%	A (0%≤substrate protein remaining %≤80%)
CC1(C)CCC(c2ccc(Cl)cc2)=C(CN2CCN(c3ccc(C(=O)NS(=O)(=O)c4ccc(N[C@H](CCN5C[C@H]6C[C@@H]5CN6Cc5ccc6c(c5)C(=O)N(N5CCC(=O)NC5=O)C6=O)CSc5ccccc5)c(S(=O)(=O)C(F)(F)F)c4)cc3)CC2)C1 [GT-07816, 4-(4-((4′-chloro-4,4-dimethyl-3,4,5,6-tetrahydro-[1,1′-biphenyl]-2-yl)methyl)piperazin-1-yl)-N-((4-(((R)-4-((1R,4R)-5-((2-(2,4-dioxotetrahydropyrimidin-1(2H)-yl)-1,3-dioxoisoindolin-5-yl)methyl)-2,5-diazabicyclo[2.2.1]heptan-2-yl)-1-(phenylthio)butan-2-yl)amino)-3-((trifluoromethyl)sulfonyl)phenyl)sulfonyl)benzamide]			10 to 15%	60 to 70%	5 to 10%	40 to 50%	A (0%≤substrate protein remaining %≤80%)
CC1(C)CCC(c2ccc(Cl)cc2)=C(CN2CCN(c3ccc(C(=O)NS(=O)(=O)c4ccc(N[C@H](CCN5CC6CCC(C5)N6Cc5ccc6c(c5)C(=O)N(N5CCC(=O)NC5=O)C6=O)CSc5ccccc5)c(S(=O)(=O)C(F)(F)F)c4)cc3)CC2)C1 [GT-07817, 4-(4-((4′-chloro-4,4-dimethyl-3,4,5,6-tetrahydro-[1,1′-biphenyl]-2-yl)methyl)piperazin-1-yl)-N-((4-(((2R)-4-(8-((2-(2,4-dioxotetrahydropyrimidin-1(2H)-yl)-1,3-dioxoisoindolin-5-yl)methyl)-3,8-diazabicyclo[3.2.1]octan-3-yl)-1-(phenylthio)butan-2-yl)amino)-3-((trifluoromethyl)sulfonyl)phenyl)sulfonyl)benzamide]							A (0%≤substrate protein remaining %≤80%)
